Laboratory results: PubChem BioAssay (NCI)
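Cells were grown in 96-well plates and exposed to each compound for 48 hours at five concentrations; endpoints were interpolated linearly between bracketing concentrations, or set to the highest concentration if not reached. TGI: total growth inhibition.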

Experiments:
Assay in all cases: NCI tumour cell line growth inhibition, 48 h
[1] = test system: HT29 colon
[2] = test system: SK-MEL-28 melanoma
[3] = test system: NCI-H226 lung
[4] = test system: LOX IMVI melanoma
[5] = test system: A549 NSCLC
[6] = test system: 786-0 renal
[7] = test system: CAKI-1 renal
[8] = test system: KM20L2 colon
[9] = test system: COLO 205 colon
[10] = test system: HCC-2998 colon
[11] = test system: NCI-H522 lung
[12] = test system: SK-MEL-2 melanoma
[13] = test system: XF 498 CNS
[14] = test system: UACC-257 melanoma
[15] = test system: MALME-3M melanoma
[16] = test system: HOP-92 NSCLC
[17] = test system: M14 melanoma
[18] = test system: SR leukemia
[19] = test system: HL-60(TB) leukemia
[20] = test system: UACC-62 melanoma
[21] = test system: DMS 114 small cell lung
[22] = test system: SK-MEL-5 melanoma
[23] = test system: ACHN renal
[24] = test system: RXF-631 renal
[25] = test system: SNB-75 CNS
[26] = test system: OVCAR-5 ovarian
[27] = test system: KM12 colon
[28] = test system: RPMI-8226 leukemia
[29] = test system: SK-OV-3 ovarian
[30] = test system: DLD-1 colon
[31] = test system: NCI-H460 lung
[32] = test system: M19-MEL melanoma
[33] = test system: HOP-18 NSCLC
[34] = test system: CCRF-CEM leukemia
[35] = test system: SW-620 colon
[36] = test system: MOLT-4 leukemia
[37] = test system: SNB-19 CNS
[38] = test system: TK-10 renal
[39] = test system: OVCAR-4 ovarian
[40] = test system: HOP-62 NSCLC
[41] = test system: OVCAR-8 ovarian
[42] = test system: SN12C renal
[43] = test system: SF-295 CNS
[44] = test system: NCI-H23 lung
[45] = test system: SNB-78 CNS
[46] = test system: U251 CNS
[47] = test system: HCT-116 colon
[48] = test system: IGROV1 ovarian
[49] = test system: SF-539 CNS
[50] = test system: LXFL 529 NSCLC
[51] = test system: EKVX NSCLC
[52] = test system: K-562 leukemia
[53] = test system: HCT-15 colon
[54] = test system: DMS 273 small cell lung
[55] = test system: UO-31 renal
[56] = test system: OVCAR-3 ovarian
[57] = test system: SF-268 CNS
[58] = test system: RXF 393 renal
[59] = test system: A498 renal
[60] = test system: P388/ADR leukemia
[61] = test system: NCI/ADR-RES ovarian
[62] = test system: P388 leukemia
[63] = test system: MCF7 breast
[64] = test system: SN12K1 renal

Measured: TGI

O=C(O)CNc1cc(-c2ccccc2)nc(NCC(=O)O)n1
not listed: [57] | [58] | [59] | [60] | [61] | [62] | [63] | [64]
> 100 µM: all other assays above

CCOP(=O)(Cc1ccc(CP(=O)(OCC)OCC)n1C)OCC
not listed: [3] | [13] | [18] | [45] | [47] | [59] | [60] | [61] | [62] | [63] | [64]
> 100 µM: all other assays above

COC(=O)C12C3C4C1C1C2C3C41C(=O)OC(C)(C)C (configuration not stated)
> 60.5 µM: [54]
70.3 µM: [47]
44.1 µM: [18]
> 72.3 µM: [28] | [30]
> 67.4 µM: [21]
> 61.2 µM: [4]
> 75 µM: [35]
not listed: [60] | [61] | [62] | [63] | [64]
> 100 µM: all other assays above

O=C(/C=C/c1ccc(O)cc1)OC[C@@H](O)COC1OC(CO)C(O)C(O)C1O (some centres not stated)
not listed: [4] | [6] | [7] | [8] | [9] | [10] | [12] | [13] | [15] | [20] | [22] | [25] | [28] | [30] | [33] | [35] | [39] | [42] | [49] | [50] | [53] | [54] | [56] | [57] | [60] | [61] | [62] | [63] | [64]
> 100 µM: all other assays above

Cc1ccc(NC(=O)c2c(C)nc(=O)n3c2N(/N=C/c2ccc(Cl)cc2)CC3)cc1
26.4 µM: [47]
32 µM: [39]
> 100 µM: [18] | [34] | [52]
54.8 µM: [9]
31.6 µM: [50]
82 µM: [36]
30.6 µM: [24] | [42]
36.2 µM: [48]
34.1 µM: [13] | [25]
37 µM: [32]
32.3 µM: [10]
48.7 µM: [19]
28.2 µM: [20]
33.3 µM: [3]
43.9 µM: [54]
31.5 µM: [17]
25 µM: [49]
31.2 µM: [2]
36.6 µM: [16]
30.7 µM: [30]
24 µM: [11] | [55]
39.7 µM: [29]
29.2 µM: [57] | [44]
32.1 µM: [7]
33.1 µM: [59] | [40]
40.5 µM: [45]
55.1 µM: [21]
33.8 µM: [6] | [23]
40.1 µM: [15]
34.7 µM: [12]

CC1CC=CC(O)C1 (configuration not stated)
not listed: [6] | [7] | [17] | [18] | [23] | [24] | [38] | [50]
> 100 µM: all other assays above
